Experimental data taken from patent publication EP2353599A1, “8-hydroxyquinolines as inhibitors of cathepsin B” (University of Ljubljana, priority 2010, dated 2011).

How the values were obtained:
[1] = molecular target: T1, Cathepsin B (Homo sapiens, UniProt P07858); test: Cathepsin B endopeptidase activity, enzyme kinetics with substrate Z-RR-AMC; assay type: biochemical
Description: The effect of 8-hydroxyquinolines on cathepsin B enzymatic activity was assessed using enzyme kinetics. First, the effect of 8-hydroxyquinolines on cathepsin B endopeptidase activity was assessed using the cathepsin B specific endopeptidase substrate Z-RR-AMC. 5 µl of the Z-RR-AMC (final concentration 60, 180 and 360 µM) and 5 µl of respective compound at increasing concentrations were added to wells of a black microplate. 90 µl of human recombinant cathepsin B was then added to a final concentration of 0.4 nM in activation buffer (100 mM phosphate buffer, pH 6.0 with 0.1 % PEG, 5 mM DTT and 1.5 mM EDTA). All assay mixtures contained a constant amount of DMSO, i.e. 5 %. Formation of fluorescent degradation product was continuously monitored at 380 nm ± 20 nm excitation and […] ± 10 nm emission wavelengths on Tecan Safire^2™ at 37°C. Mechanism and the constant of inhibition (Ki) of cathepsin B endopeptidase activity were determined using the graphical method according to Cornish-Bowden (Cornish-Bowden A: A Simple Graphical Method for Determining the Inhibition Constants of Mixed, Uncompetitive and Non-Competitive Inhibitors. Biochem J 1974, 137:143-4.) and using the SigmaPlot® 11, Enzyme Kinetics Module™ 1.3. Table I. Results of testing the compounds according to Formula (I) on cathepsin B endopeptidase activity.

[2] = molecular target: cathepsin L (Homo sapiens, UniProt P07711); test: Selectivity: Ki against cathepsin L, substrate Z-FR-AMC; assay type: biochemical
Chain of cathepsin L (P07711 114-333, species assumed): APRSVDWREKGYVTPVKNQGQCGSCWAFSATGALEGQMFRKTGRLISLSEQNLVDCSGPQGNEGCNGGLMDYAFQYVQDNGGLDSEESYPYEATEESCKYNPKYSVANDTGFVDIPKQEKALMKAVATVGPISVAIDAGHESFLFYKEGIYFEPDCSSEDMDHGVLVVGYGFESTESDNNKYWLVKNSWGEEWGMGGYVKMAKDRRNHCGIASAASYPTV
Description: (§1) Activation buffer used with cathepsin L was 100 mM acetate buffer, pH 5.5 with 0.1 % PEG, 5 mM DTT and 1.5 mM EDTA and with cathepsin H was 100 mM phosphate buffer, pH 6.8 with 0.1 % PEG, 5 mM DTT and 1.5 mM EDTA. Table II. Ki values for 5-nitro-8-hydroxyquinoline determined against cathepsins B, L and H.

[3] = molecular target: T2, cathepsin H (Homo sapiens, UniProt P09668); test: Selectivity: Ki against cathepsin H, substrate R-AMC; assay type: biochemical
T2 sequence (P09668 98-335): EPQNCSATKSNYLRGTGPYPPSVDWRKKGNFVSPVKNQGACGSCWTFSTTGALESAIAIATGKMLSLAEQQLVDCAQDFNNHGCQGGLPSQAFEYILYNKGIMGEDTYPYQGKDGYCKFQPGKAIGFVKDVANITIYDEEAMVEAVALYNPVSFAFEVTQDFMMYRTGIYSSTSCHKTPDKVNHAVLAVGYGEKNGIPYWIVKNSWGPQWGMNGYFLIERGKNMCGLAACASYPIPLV
Description: as §1

[4] = molecular target: T1, Cathepsin B; test: Reversibility by mass spectrometry (ESI-MS of cathepsin B after incubation and dialysis); assay type: binding; conditions: equimolar inhibitor, 1 h room temperature, dialysis
Description: Third, reversibility of 5-nitro-8-hydroxyquinoline was also checked with mass spectrometry. Cathepsin B (4.4 µM) was activated in the activation buffer for 5 min at 37 °C. Afterwards, an equimolar amount of the inhibitor was added to the enzyme and incubated for 1 h at room temperature. The mixture was dialyzed against water five times using Microcon Centrifugal Filter Devices YM-10 to avoid salt interferences and to remove unbound molecules of the test compound. Samples were then prepared by adding an equal volume of acetonitrile containing 0.1 % formic acid and analyzed with ESI-MS on an AutoSpec Q instrument. As a positive control CA-074 was used.

[5] = tested on: MCF-10A neoT cells; test: MTS cytotoxicity assay; assay type: cell-based; conditions: 10 µM, 24 h incubation
Description: A MTS assay was used to assess the cytotoxic effect of 5-nitro-8-hydroxyquinoline on MCF-10A neoT cells. 5 × 10^4 cells in 100 µl of medium were added to a single well of a 96-microtiter plate to which a 100 µl of 5-nitro-8-hydroxyquinoline solution (twice the final concentration) was added. After 24 h incubation the cells were washed and the medium was replaced with 100 µl of fresh medium to which a 20 µl of MTS was added. After 2 h incubation the absorbance was measured at 490 nm. The experiment was performed in quadruplicates and DMSO was used as control.

[6] = tested on: MCF-10A neoT cell line; test: Millicell Matrigel in vitro tumour cell invasion assay; assay type: cell-based; conditions: Homo sapiens, 24 h, read-out: inhibition of tumour invasion compared to DMSO control
Description: To assess the ability of 5-nitro-8-hydroxyquinoline to inhibit tumour cell invasion two independent experiments were used. First, an in vitro invasion model using Millicell Cell culture inserts (12 mm polycarbonate inserts with 12 µm pores) was performed. The bottom sides of 24-wells were coated with 100 µl of fibronectin from bovine plasma (25 µg/ml) and left in a laminar hood to dry. The upper side of Millicell inserts was coated with 100 µl of Matrigel (0.75 mg/ml in serum free medium) and incubated for 1 h at 37 °C. The inserts were then placed in with fibronectin coated wells. The upper compartments of the inserts were filled with 200 µl MCF-10A neoT cell suspension (7.5x10^5/ml) containing 5-nitro-8-hydroxyquinoline (10 µM) in serum free medium and the bottom compartments were filled 500 µl of medium containing 10 µM 5-nitro-8-hydroxyquinoline and 10 % fetal calf serum. After 24 h incubation the bottom sides of wells were washed with 500 µl of PBS and the cells that were attached were detached by 0.05 % trypsin and 0.02 % EDTA in PBS. […] After a 2 h incubation period the absorbance was measured at 490 nm. […] The percentage of cell invasion was calculated as the ratio between the invading cells and the total cell population.

[7] = tested on: MCF-10A neoT cells; test: Extracellular DQ-collagen IV degradation, fluorescence intensity in medium; assay type: cell-based; conditions: Homo sapiens, MCF-10A-neoT, 3 h, DQ-collagen IV 5 µg/ml
Description: Two experiments were set to differentiate between inhibition of intracellular and extracellular DQ-collagen IV degradation. Inhibition of extracellular DQ-collagen IV degradation was observed by monitoring the fluorescence intensity of degraded DQ-collagen IV in the medium in which MCF-10A neoT cells were grown. 5 × 10^4 MCF-10A neoT cells were plated into wells of a 96-well black plate and were allowed to attach over night. Cells were then incubated with 100 µl PBS containing 5-nitro-8-hydroxyquinoline, CA-074 or CA-074Me (10 µM) and DQ-collagen IV (5 µg/ml) for 3 h. Afterwards, the 80 µl of PBS was transferred into the empty wells and the fluorescence intensity was measured at 495 nm ± 5 nm excitation and 515 nm ± 5 nm emission wavelengths on Tecan Safire^2™. The experiment was performed in 8 parallels and DMSO was used as a control.

Mechanism of inhibition ([1]; cathepsin B endopeptidase activity): uncompetitive inhibition
Ki ([1]; endopeptidase activity, substrate Z-RR-AMC, pH 6.0, 37°C): 37.7 ± 3.5 µM
Mechanism of inhibition [2]: competitive
Ki ([2]; substrate Z-FR-AMC, pH 5.5): 175 ± 17.1 µM
Mechanism of inhibition [3]: mixed
Ki ([3]; substrate R-AMC, pH 6.8): 220.8 ± 2.1 µM
Molecular weight of cathepsin B after incubation with inhibitor [4]: did not alter
Compound: O=[N+]([O-])c1ccc(O)c2ncccc12 [Compound 1, 5-nitro-8-hydroxyquinoline]
cytotoxic effect (cell viability, MTS) [5]: non-toxic
inhibition at 10 µM [6]: 40.7%
inhibition at 10 µM [7]: 35.3%
